In article PMC10269622, “Blapstin, a Diapause-Specific Peptide-Like Peptide from the Chinese Medicinal Beetle Blaps rhynchopetera, Has Antifungal Function” (Microbiology Spectrum, 2023):
Bridge positions count the residues as written; N and C are the ends. Ends that are not written are not given here.

What was measured:
C. albicans ATCC 10231 [1] = experiment: Intracellular ROS burst, H2DCFDA probe; assay type: cell-based, Candida albicans; conditions: 1×, 8×, 32× MIC, 37°C, 30 min
Method: H2DCFDA is a cell-permeable probe for detecting intracellular ROS ([72]). C. albicans ATCC 10231 was cultured in YM medium to logarithmic stage in a constant-temperature shaking machine at 37°C, centrifuged at 1,000 × g for 5 min to remove the supernatant, and washed with normal saline three times, and then the fungal solution was diluted to an OD600 of 0.1. Different concentrations of blapstin (1× MIC, 8× MIC, 32× MIC) were added to diluted fungal suspension and incubated at 37°C for 30 min. H2O2 at 0.1 mM was used as the positive control, and 0.9% NaCl was used as the negative control. After incubation, the suspension was centrifuged at 1,000 × g for 5 min to discard the supernatant and leave the thallus precipitation. The H2DCFDA dye was dissolved with DMSO and diluted with 0.9% NaCl containing 15% DMSO to achieve a final concentration of 10 μM. The thallus precipitation was mixed with 1 mL of a […] H2DCFDA working solution to each tube, incubated at 37°C for 30 min, and then centrifuged at 1,000 × g for 5 min to remove the supernatant. […] One milliliter of 0.9% NaCl was added to each tube and analyzed with a multifunctional fluorescent enzyme labeling instrument (SynergyH1; Biotek, USA). The excitation/emission wavelengths were set at […], and the ROS burst was monitored. The experiment was repeated three times, with three biological replicates at a time.

C. albicans = experiment: Thermostability of antifungal activity (paper disk assay); assay type: physicochemical, Candida albicans; conditions: for Antifungal activity after heating: 20 μL of 225 μM, then paper disk assay on YM medium, 37°C, 18 h
Method: (i) Effects of temperature. In the test of thermostability of antifungal activity, (20 μL(225 μM) of blapstin was heated at different temperatures (20°C, 40°C, 60°C, 80°C, 90°C, and 100°C) for 30 min and cooled down at 4°C ([63]). Colistin E was used as the positive control, and 1.5% NaCl was used as the negative control. Then, these samples were transferred to the paper disks in the YM solid medium with C. albicans and incubated at 37°C for 18 h for the assay of antifungal activity.

[2] = Stability in human plasma (residual antifungal activity, inhibition zone); assay type: in vitro ADME; conditions: 225 μM in 100% human plasma
Method: The stability of blapstin in human plasma was assessed using a previously described method ([67]). Blapstin (225 μM) was mixed with 100% human plasma and incubated at 37°C for 0, 2, 4, 6, 8, 10, 15, and 24 h, respectively. Then, the residual antifungal activity against C. albicans ATCC 10231 for each incubation period was evaluated using an inhibition zone assay. Nutrient YM solid medium was coated with C. albicans ATCC 10231, and then 10-μL aliquots of the plasma-peptide mixture were added to sterile, 5-mm-diameter filter paper disks placed on the medium. After 24 h of incubation, the diameter of the inhibition zone against C. albicans ATCC 10231 was measured in triplicate.

C. albicans ATCC 10231 [3] = experiment: Fungus-killing kinetics (colony counting); assay type: cell-based, Candida albicans; conditions: 5× MIC, 2 × 10^5 CFU/mL in YM broth, 37°C, three independent experiments
Method: The in vitro killing curve for blapstin against C. albicans was determined as described previously with minor modifications ([66]). In brief, C. albicans ATCC 10231 was diluted to 2 × 10^5 CFU/mL with sterile YM liquid broth. Different concentrations of blapstin (1×, 5×, and 10× MIC) were added to the fungal suspension and cultured at 37°C for various periods (0, 1, 10, 30, 60, and 180 min). Colistin E (1×, 5×, and 10× MIC) was used as a positive control, and 0.9% NaCl was used as a negative control. Within the specified time interval after incubation, the fungal suspensions were diluted 1,000-fold with YM medium, and 100 μL of the diluted fungal suspension was inoculated on YM solid medium. After incubation at 37°C for 24 h, colony counting was performed and the results were expressed as CFU per milliliter.

ion channel = experiment: Ion channel inhibition; conditions: stated in the discussion only, no method or channel given
human erythrocytes = experiment: Hemolysis assay; assay type: cell-based; conditions: concentration as high as 56.25 μM, 30 min, 37°C; 1% Triton X-100 as maximum hemolysis; three independent experiments
Method: As previously reported ([65], [67]), hemolytic activity and cytotoxicity assays were performed using human erythrocytes and mouse macrophages (RAW 264.7 cells). These cells were obtained from Kunming Medical University and Cell Bank of Kunming Institute of Zoology, Chinese Academy of Sciences, respectively. To investigate the hemolytic activity, washed erythrocytes were diluted with normal saline into a suspension of 10^7 to 10^8 cells/mL and mixed with serial dilutions of blapstin (from 1.76 μM to 225 μM) at a 1:1 ratio, followed by incubation for 30 min at 37°C. Then, these erythrocytes were centrifuged for 15 min at 500 × g (Eppendorf, Germany; FA-45-24-11, 4°C). Next, the supernatant was collected, and the hemolysis rate (%) was measured to quantify the hemolysis of blapstin. The maximum hemolysis rate was determined using an equal volume of 1% Triton X-100 as a positive control, and the zero hemolysis rate was determined using sterile normal saline as a negative control. Hemolytic activity was calculated using the following formula: hemolysis rate (%) = (hemolysis of experimental group-negative control)/(hemolysis of positive control-negative control) × 100%. HC50 values were defined as the peptide concentrations causing 50% hemolysis of human erythrocytes.

T. rubrum = experiment: Cryo-SEM membrane morphology; assay type: cell-based, Trichophyton rubrum; conditions: 1× MIC
C. albicans ATCC 10231 [4] = experiment: Cryo-SEM membrane morphology; assay type: cell-based, Candida albicans; conditions: 1× MIC, 10 μL on filter paper disk, YM solid medium
Method: Cryo-SEM was used to examine membrane morphology as previously described with minor modifications ([65]). C. albicans ATCC 10231 was cultured in a nutrient YM solid medium. Sterilized 5-mm-diameter filter paper disks were placed on the surface of the medium, and 10 μL (1× MIC) of blapstin was added to the disks. Sterile 0.9% NaCl was used as the blank control. Fungi treated with blapstin were observed using cryo-SEM with a Quorum pp3010t system (Sigma 300; Carl Zeiss, Germany).

VRVGPCDQVCSRTNPEKDECCRAHGHSGHSSCYGGRMNCYG (disulfide 6-21, 10-32, 20-39 (inferred)) [Blapstin]
Change in ROS fluorescence in C. albicans (C. albicans ATCC 10231 [1]): increased | Antifungal activity after heating (C. albicans; 20°C to 90°C for 30 min): full antifungal activity was retained | Antifungal activity after heating (C. albicans; 100°C for 30 min): slightly reduced | Thermostable up to (C. albicans; heated 30 min, read-out antifungal activity toward C. albicans): up to 90 °C | Residual antifungal activity after incubation in human plasma ([2]; 37°C, 24 h, inhibition zone against C. albicans ATCC 10231, triplicate): did not completely disappear | Stability in human plasma ([2]; 8 h at 37°C, inhibition zone against C. albicans ATCC 10231): high stability | Time to kill C. albicans ATCC 10231 (C. albicans ATCC 10231 [3]): less than 60 min | Ion channel inhibition activity (ion channel): did not show ion channel inhibition activity | Hemolytic activity against human erythrocytes (human erythrocytes): little hemolytic activity | Membrane morphology under cryo-SEM (T. rubrum): membrane shrinkage and disruption of the plasma membrane | Membrane morphology under cryo-SEM (C. albicans ATCC 10231 [4]): membrane shrinkage and disruption of the plasma membrane
